From US20170000784A1, “Autophagy Inhibitors” (priority 2013, published 2017)
Entries after “also recorded” stand apart in the source; their conditions may differ. Where two headings read alike, the source gives them in different places.

Columns and labels:
Assay type in all cases: cell-based
U2OS cells = assay: Transmission electron microscopy of lysosomal vesicles; conditions: 3 μM for 3 hours, FIG. 12B
Method: U2OS cells were seeded in 10 cm plates in 5A McCoy's with 10% FBS at 1×10^6 cells per plate. After 24 hours incubation, cells were treated with DMSO (vehicle control), CQ (3 or 100 μM), quinicrine (3 μM), VATG-027 (3 μM), or VATG-032 (3 μM) for three hours. Following, cells were trypsinized, washed, pelleted, and resuspended in 2% glutaraldehyde fixative (Sigma, G5882). Cell pellets were embedded in 2% agarose, post-fixed in osmium tetroxide, and dehydrated with an acetone series. Cell samples were infiltrated and embedded in Poly/Bed 812 resin and polymerized at 60° C. for 24 hours. Ultrathin sections of 70 nm were generated with a Power Tome XL (Boeckeler Instruments) and placed on copper grids. Sections were examined using a JEOL 100Cx Transmission Electron Microscope at 100 kV. Lysosomal structures were identified by a single membrane structure lacking cytosolic components (FIG. 12). Transmission electron microscopy services were performed by Michigan State University Center for Advanced Microscopy (East Lansing, Mich.).
To test the theory, lysosomal turnover was first evaluated by visualizing lysosomes using transmission electron microscopy (TEM). U2OS cells were initially treated with a CQ concentration above the effective dose (100 μM) for 3 hours as a positive control, and were then subsequently fixed and imaged. […] Once this phenotype was established, cells were treated with a lower concentration (3 μM) of CQ to compare each compound at the same concentration.

[1] = tested on: UACC-91 melanoma cell line; assay: Cell viability (IC50) screen, CellTiter Glo, UACC-91; conditions: Homo sapiens
Method: (§1) U2OS cells were seeded at 500 cells per well in 5A McCoy's with 10% FBS in 96-well clear bottom, black-walled tissue culture plates. All melanoma cell lines (A375, UACC-91, UACC-257, UACC-502, UACC-903, UACC-1308, UACC-1940, UACC-2534, and UACC-3291) were seeded at 5,000 cells per well in RPMI 1640 with 10% FBS in 96-well clear bottom, black-walled tissue culture plates. After 24 hour incubation, cells were treated with VATG compounds in triplicate with a 10-point half log dose response from […] for 24 and 48 hours. Medium was removed and 2× CellTiter Glo (Promega, G7571) reagent mixed 1:1 with Opti-MEM (Invitrogen, 31985062) was added at 100 μL per well and incubated at room temperature for 15 minutes while rocking. 75 μL per well was moved to a white-walled 96-well plate and luminescence quantified using the 96 LUM program on an EnVision plate reader (PerkinElmer) and exported for analysis. All triplicate data points were averaged and luminescent readings for each treatment were normalized to vehicle control for change in viability. Dose response curves were input into SigmaPlot for IC50 calculations (Systat Software Inc).

[2] = tested on: lysosomes (LAMP1, LysoTracker Red) in U2OS cells; assay: Lysosome analysis by fluorescent microscopy (LAMP1 / LysoTracker Red); conditions: 3 μM for 3 hours; for LysoTracker Red staining: LysoTracker Red for the final hour
Method: To determine deacidification of the lysosome, cells were incubated with LysoTracker Red, a dye that localizes to the lysosome based on the […] of the compartment. If the lysosome is no longer acidic, there is a loss in the amount of LysoTracker Red staining. Lysosomal inhibition was further determined by immunofluorescence of lysosome-associated membrane protein-1 (LAMP1). If the lysosome is inhibited, lysosomal turnover should decrease and an increase in the amount of LAMP1 staining would be apparent. U2OS cells were treated with Example 7 or Example 26 at 3 μM for 3 hours, supplementing LysoTracker Red for the final hour.
Using image analysis software, the mean intensities of both the LAMP1 and LysoTracker Red staining were measured and represent altered intensity level between treatments on intensity plots. Individual points were measured using a line scan on the image analysis software, which measures the intensity across the path of a line at any given point. Not only does the presence of LAMP1 positive membranes increases, but the intensity in LAMP1 staining also increases with Example 7 and Example 26 treatment. The inverse relationship in intensity holds true for LysoTracker Red staining.
U2OS cells were seeded at 5×10^4 cells per well in 5A McCoy's with 10% FBS on number 1.5 coverglass discs in 24-well tissue culture dishes. After 24 hours, cells were treated with 3 μM CQ, QN, VATG-027, or VATG-032 for three hours. An hour prior to fixation, media was supplemented with LysoTracker Red added at 100 nM (Invitrogen, L7528). Cells were washed with 1×PBS, fixed with 3.7% formaldehyde, permeabilized with 0.2% Triton-X 100, and blocked with 3% bovine serum albumin (BSA) in PBS. LAMP1 antibody (Santa Cruz, sc-18821) was added at 1:1000 for 16 hours at 4° C. followed by Alexa-Fluor-488-conjugated anti-mouse IgG (Invitrogen, A11008) 1:5000 for 1 hour at room temperature. Nuclei were stained with Hoechst 33342 (2 μg/mL). Coverglass discs were inverted onto a microscope slide using mounting gel. The microscope slides were imaged using a 60× oil-immersion objective on a Nikon Eclipse Ti fluorescent microscope. Intensity of the red and green channels were visualized using the intensity plot on the Nikon NIS Elements software (FIG. 13B). […] The RGB threshold of only the color […] indicating both LAMP1 and LysoTracker Red positivity was performed and data for analysis. The Mander's co-localization coefficient was produced from the Nikon NIS Elements software.
Next, the inventors sought to confirm the inhibition of lysosomal turnover induced by the compounds of the present invention, for example, those of Formula III, Formula III(a), Formula V, Formula V(a), Formula A, Formula A^1, Formula A^2, Formula A^3, or a pharmaceutically acceptable salt thereof, by evaluating the abundance of endogenous lysosomal protein, LAMP1. In addition, lysosome acidity was assessed by co-staining cells with LysoTracker Red, a dye that localizes to the lysosome based on the low pH. Cells were treated with 3 μM CQ, QN, Example 7, or Example 27 for 3 hours, with LysoTracker Red supplemented for the final hour. Following, cells were fixed and stained with endogenous LAMP1 antibodies and both LAMP1 and LysoTracker Red imaged. […] To quantify this phenotype, the co-localization of LAMP1 and LysoTracker Red was measured using image analysis software. […] In addition, Mander's colocalization coefficient (MCC) values were determined for each treatment (FIG. 13C). Not only does the presence of LAMP1-positive membranes increase, but the intensity of LAMP1 staining also increases with QN, Example 7, and Example 27 treatment (FIG. 13C).

[3] = tested on: UACC-903 melanoma cell line; assay: Cell viability (IC50) screen, CellTiter Glo, UACC-903; conditions: Homo sapiens
Method: as §1

[4] = tested on: UACC-1940 melanoma cell line; assay: Cell viability (IC50) screen, CellTiter Glo, UACC-1940; conditions: Homo sapiens
Method: as §1

[5] = tested on: UACC-3291 melanoma cell line; assay: Cell viability (IC50) screen, CellTiter Glo, UACC-3291; conditions: Homo sapiens
Method: as §1

[6] = UACC-91 cell viability, CellTiter Glo, read-out: IC50
[7] = UACC-903 cell viability, CellTiter Glo, read-out: IC50
[8] = UACC-1940 cell viability, CellTiter Glo, read-out: IC50
[9] = UACC-3291 cell viability, CellTiter Glo, read-out: IC50

Structure (SMILES) | size and number of electron-lucent and electron-dense vesicles (TEM) (U2OS cells) | IC50 [1, 6] | LAMP1 staining [2] | LysoTracker Red staining [2] | IC50 [3, 7] | IC50 [4, 8] | IC50 [5, 9] | electron-opaque structures, consistent with lipid droplets (TEM) (U2OS cells) | IC50 [1] | IC50 ([3]; UACC-903) | IC50 [4] | IC50 [5]
CCN(CC)CCCC(C)Nc1c2ccc(Cl)cc2nc2ccc(OC)cc12 (centres unmarked) [Quinacrine, quinacrine, reference compound] | increase in both the size and number | 2900 nM | substantial increases | essentially eliminated | 2700 nM | 1.9 µM | 2000 nM |  |  |  |  | 
COc1ccc2nc3cc(Cl)ccc3c(NCCCCN3CCN(C)CC3)c2c1 [Example 7, 6-Chloro-2-methoxy-N-(4-(4-methylpiperazin-1-yl)butyl)acridin-9-amine] | increase in both the size and number | 500 nM | substantial increases | essentially ablated; also recorded: less intense; also recorded: essentially eliminated | 1500 nM | 4 µM | 800 nM | appearance of several electron-opaque structures |  |  |  | 
CN1CCN(CCNc2c3c(nc4cc(Cl)ccc24)CCCC3)CC1 [Example 27, 6-Chloro-N-(2-(4-methylpiperazin-1-yl)ethyl)-1,2,3,4-tetrahydroacridin-9-amine] | increase in both the size and number |  | substantial increases | essentially ablated; also recorded: essentially eliminated |  |  |  | appearance of several electron-opaque structures | 22200 nM | 27200 nM | 21.6 µM | 25300 nM
